Experimental data: ChEMBL document CHEMBL1743141, “Membrane transporters in drug development” (Nat Rev Drug Discov, 2010)
Each block holds one molecule with its values, some of them ahead of it. Square brackets hold non-standard residues; d marks the D form. Peptide text beside a SMILES is read from it. Sar = CNCC(=O)O

Assays:
Type in all cases: ADME
[1] = molecular target: T1, Solute carrier organic anion transporter family member 1B3 (Homo sapiens, UniProt Q9NPD5); experiment: Substrates of transporters of clinical importance in the absorption and disposition of drugs, OATP1B3
T1 sequence (Q9NPD5 whole entry): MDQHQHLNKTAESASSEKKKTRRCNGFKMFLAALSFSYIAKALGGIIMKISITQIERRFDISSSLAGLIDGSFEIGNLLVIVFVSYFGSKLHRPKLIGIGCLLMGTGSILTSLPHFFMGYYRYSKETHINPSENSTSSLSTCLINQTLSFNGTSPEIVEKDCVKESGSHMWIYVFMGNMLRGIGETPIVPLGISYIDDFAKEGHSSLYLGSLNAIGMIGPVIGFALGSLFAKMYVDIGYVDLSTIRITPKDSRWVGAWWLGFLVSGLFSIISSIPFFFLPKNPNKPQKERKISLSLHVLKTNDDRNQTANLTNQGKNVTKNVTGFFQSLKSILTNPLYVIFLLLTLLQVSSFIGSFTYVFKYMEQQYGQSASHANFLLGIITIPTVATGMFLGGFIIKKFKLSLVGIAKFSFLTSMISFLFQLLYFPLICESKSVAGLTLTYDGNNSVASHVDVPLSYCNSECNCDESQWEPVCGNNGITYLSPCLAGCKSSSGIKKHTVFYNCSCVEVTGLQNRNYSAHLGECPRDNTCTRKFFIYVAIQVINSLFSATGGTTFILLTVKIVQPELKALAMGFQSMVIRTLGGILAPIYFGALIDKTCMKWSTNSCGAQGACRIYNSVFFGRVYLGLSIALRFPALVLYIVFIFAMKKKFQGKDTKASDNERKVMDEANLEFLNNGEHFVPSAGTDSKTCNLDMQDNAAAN

[2] = molecular target: T2, Solute carrier family 15 member 1 (Homo sapiens, UniProt P46059); experiment: Substrates of transporters of clinical importance in the absorption and disposition of drugs, PEPT1
T2 sequence (P46059 whole entry): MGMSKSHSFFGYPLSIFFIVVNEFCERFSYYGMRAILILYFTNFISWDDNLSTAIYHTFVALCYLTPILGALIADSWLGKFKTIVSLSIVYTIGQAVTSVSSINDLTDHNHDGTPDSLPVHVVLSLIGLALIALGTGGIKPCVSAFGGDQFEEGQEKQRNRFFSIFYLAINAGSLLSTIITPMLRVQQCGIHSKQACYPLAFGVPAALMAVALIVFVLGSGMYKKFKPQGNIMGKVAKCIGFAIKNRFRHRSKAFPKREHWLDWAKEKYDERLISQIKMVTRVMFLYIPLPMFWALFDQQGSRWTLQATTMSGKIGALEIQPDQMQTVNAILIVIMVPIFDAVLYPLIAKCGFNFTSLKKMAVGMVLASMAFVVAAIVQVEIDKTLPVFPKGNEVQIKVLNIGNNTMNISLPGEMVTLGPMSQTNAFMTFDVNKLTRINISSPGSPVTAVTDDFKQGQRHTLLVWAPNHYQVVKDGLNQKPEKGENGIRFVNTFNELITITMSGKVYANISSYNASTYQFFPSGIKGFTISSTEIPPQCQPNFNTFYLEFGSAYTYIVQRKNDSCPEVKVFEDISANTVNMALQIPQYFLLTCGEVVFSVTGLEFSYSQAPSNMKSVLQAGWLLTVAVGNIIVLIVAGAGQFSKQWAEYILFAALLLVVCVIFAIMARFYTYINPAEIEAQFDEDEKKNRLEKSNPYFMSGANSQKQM

[3] = molecular target: T3, Solute carrier family 15 member 2 (Homo sapiens, UniProt Q16348); experiment: Substrates of transporters of clinical importance in the absorption and disposition of drugs, PEPT2
T3 sequence (Q16348 whole entry): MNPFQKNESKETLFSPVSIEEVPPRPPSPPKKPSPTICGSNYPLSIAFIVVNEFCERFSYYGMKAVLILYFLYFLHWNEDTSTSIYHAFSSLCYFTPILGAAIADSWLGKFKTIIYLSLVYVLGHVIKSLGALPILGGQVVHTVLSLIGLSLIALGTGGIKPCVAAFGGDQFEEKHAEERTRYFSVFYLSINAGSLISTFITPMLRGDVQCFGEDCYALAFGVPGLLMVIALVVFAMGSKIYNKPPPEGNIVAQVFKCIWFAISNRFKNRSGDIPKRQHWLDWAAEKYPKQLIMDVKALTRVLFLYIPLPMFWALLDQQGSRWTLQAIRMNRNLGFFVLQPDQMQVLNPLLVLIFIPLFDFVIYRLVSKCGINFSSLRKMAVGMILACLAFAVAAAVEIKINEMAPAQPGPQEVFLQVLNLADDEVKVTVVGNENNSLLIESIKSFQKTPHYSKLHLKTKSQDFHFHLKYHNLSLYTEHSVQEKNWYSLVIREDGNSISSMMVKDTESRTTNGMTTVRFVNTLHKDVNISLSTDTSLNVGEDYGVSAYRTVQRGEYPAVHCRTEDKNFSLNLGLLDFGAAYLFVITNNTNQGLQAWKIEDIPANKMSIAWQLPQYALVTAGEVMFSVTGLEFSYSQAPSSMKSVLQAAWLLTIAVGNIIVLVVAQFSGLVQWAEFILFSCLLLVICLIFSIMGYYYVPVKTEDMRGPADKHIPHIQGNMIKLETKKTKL

[4] = molecular target: T4, Solute carrier family 22 member 2 (Homo sapiens, UniProt O15244); experiment: Substrates of transporters of clinical importance in the absorption and disposition of drugs, OCT2
T4 sequence (O15244 whole entry): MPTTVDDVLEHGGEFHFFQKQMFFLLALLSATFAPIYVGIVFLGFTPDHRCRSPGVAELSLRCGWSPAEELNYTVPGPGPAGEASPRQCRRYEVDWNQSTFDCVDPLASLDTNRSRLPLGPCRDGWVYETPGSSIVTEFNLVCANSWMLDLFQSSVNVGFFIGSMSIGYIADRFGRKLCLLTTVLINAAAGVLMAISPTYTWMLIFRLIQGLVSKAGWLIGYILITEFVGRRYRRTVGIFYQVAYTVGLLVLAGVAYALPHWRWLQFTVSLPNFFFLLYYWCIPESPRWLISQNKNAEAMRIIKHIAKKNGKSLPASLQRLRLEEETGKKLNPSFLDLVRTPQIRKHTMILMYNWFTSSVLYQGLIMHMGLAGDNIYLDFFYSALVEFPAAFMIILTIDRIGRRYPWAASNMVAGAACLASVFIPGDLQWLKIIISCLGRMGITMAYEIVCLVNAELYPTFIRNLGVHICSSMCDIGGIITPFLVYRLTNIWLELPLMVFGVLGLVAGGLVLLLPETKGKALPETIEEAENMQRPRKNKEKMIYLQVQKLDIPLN

[5] = molecular target: T5, Solute carrier organic anion transporter family member 1B1 (Homo sapiens, UniProt Q9Y6L6); experiment: Substrates of transporters of clinical importance in the absorption and disposition of drugs, OATP1B1
T5 sequence (Q9Y6L6 whole entry): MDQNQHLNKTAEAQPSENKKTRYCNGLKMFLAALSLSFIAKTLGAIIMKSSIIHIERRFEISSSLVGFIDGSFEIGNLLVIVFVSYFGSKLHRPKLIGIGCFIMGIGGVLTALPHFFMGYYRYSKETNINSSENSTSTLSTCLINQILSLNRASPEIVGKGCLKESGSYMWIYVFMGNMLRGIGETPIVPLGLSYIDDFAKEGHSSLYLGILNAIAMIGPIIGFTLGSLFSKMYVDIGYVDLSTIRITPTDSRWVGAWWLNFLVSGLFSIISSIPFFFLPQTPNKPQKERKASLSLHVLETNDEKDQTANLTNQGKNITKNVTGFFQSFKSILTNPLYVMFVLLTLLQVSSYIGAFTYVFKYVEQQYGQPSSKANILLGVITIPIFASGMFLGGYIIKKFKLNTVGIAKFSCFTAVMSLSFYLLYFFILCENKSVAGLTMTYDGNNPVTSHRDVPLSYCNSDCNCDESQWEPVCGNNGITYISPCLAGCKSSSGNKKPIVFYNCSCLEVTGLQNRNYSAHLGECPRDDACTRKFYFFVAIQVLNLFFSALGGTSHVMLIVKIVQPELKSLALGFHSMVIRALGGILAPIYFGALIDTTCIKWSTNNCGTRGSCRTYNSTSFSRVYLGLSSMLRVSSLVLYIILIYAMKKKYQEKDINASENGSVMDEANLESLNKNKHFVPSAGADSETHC

[6] = molecular target: T6, Solute carrier organic anion transporter family member 1A2 (Homo sapiens, UniProt P46721); experiment: Substrates of transporters of clinical importance in the absorption and disposition of drugs, OATP1A2
T6 sequence (P46721 whole entry): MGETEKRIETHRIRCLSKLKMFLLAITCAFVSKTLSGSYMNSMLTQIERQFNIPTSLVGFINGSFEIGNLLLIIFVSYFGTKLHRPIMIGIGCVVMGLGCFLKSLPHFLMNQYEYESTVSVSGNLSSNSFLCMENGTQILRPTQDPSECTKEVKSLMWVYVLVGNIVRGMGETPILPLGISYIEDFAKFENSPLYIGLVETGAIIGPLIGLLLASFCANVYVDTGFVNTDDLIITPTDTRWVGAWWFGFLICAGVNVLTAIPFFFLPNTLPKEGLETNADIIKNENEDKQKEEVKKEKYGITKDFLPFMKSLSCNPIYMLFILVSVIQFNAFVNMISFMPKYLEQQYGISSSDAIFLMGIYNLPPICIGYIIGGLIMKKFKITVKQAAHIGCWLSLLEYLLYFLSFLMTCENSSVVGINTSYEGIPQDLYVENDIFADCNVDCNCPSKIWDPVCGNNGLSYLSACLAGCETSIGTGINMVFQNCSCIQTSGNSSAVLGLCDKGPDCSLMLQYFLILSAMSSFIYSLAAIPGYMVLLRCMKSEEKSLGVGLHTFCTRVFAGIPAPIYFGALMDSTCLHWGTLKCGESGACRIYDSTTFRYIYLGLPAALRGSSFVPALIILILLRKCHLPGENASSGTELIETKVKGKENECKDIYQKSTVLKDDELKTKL

Structure (SMILES): NC12CC3CC(CC(C3)C1)C2 [AMANTADINE]
- Activity [4]: transporter substrate

Structure (SMILES): N=C(N)NC(=O)c1nc(Cl)c(N)nc1N [AMILORIDE]
- Activity [4]: transporter substrate

Structure (SMILES): NCC(=O)CCC(=O)O [AMINOLEVULINIC ACID]
- Activity [2]: transporter substrate
- Activity [3]: transporter substrate

Structure (SMILES): C=CC1=C(C)/C(=C/c2[nH]c(Cc3[nH]c(/C=C4\NC(=O)C(C)=C4C=C)c(C)c3CCC(=O)O[C@@H]3O[C@H](C(=O)O)[C@@H](O)[C@H](O)[C@H]3O)c(CCC(=O)O[C@@H]3O[C@H](C(=O)O)[C@@H](O)[C@H](O)[C@H]3O)c2C)NC1=O [BILIRUBIN GLUCURONIDE]
- Activity [5]: transporter substrate

Structure (SMILES): C=CC1=C(C)/C(=C/c2[nH]c(Cc3[nH]c(/C=C4\NC(=O)C(C)=C4C=C)c(C)c3CCC(=O)O)c(CCC(=O)O)c2C)NC1=O [BILIRUBIN]
- Activity [5]: transporter substrate

Structure (SMILES): CN(CC(=O)O)C(=O)CN [GLYCYLSARCOSINE] (H-Gly-[Sar]-OH)
- Activity [2]: transporter substrate
- Activity [3]: transporter substrate

Structure (SMILES): C[C@@H]1O[C@@H](O[C@H]2C[C@@H](O)[C@]3(CO)[C@H]4[C@H](O)C[C@]5(C)[C@@H](C6=CC(=O)OC6)CC[C@]5(O)[C@@H]4CC[C@]3(O)C2)[C@H](O)[C@H](O)[C@H]1O [OUABAIN]
- Activity [6]: transporter substrate

Structure (SMILES): CC(C)NCC(O)COc1cccc2[nH]ccc12 (stereo not given) [PINDOLOL]
- Activity [4]: transporter substrate

Structure (SMILES): CNC(=C[N+](=O)[O-])NCCSCc1ccc(CN(C)C)o1 [RANITIDINE]
- Activity [4]: transporter substrate

Structure (SMILES): CSCC[C@H](NC(=O)[C@H](Cc1ccc(OS(=O)(=O)O)cc1)NC(=O)[C@@H](N)CC(=O)O)C(=O)NCC(=O)N[C@@H](Cc1c[nH]c2ccccc12)C(=O)N[C@@H](CCSC)C(=O)N[C@@H](CC(=O)O)C(=O)N[C@@H](Cc1ccccc1)C(N)=O [SINCALIDE]
- Activity [1]: transporter substrate

Structure (SMILES): c1cnc2cc3c(cc2n1)[C@@H]1CNC[C@H]3C1 [VARENICLINE]
- Activity [4]: transporter substrate

Now from value to molecule:

- Activity [1]: transporter substrate
Structure (SMILES): CCCc1nc2c(C)cc(-c3nc4ccccc4n3C)cc2n1Cc1ccc(-c2ccccc2C(=O)O)cc1

- Activity [2]: transporter substrate
- Activity [3]: transporter substrate
Structure (SMILES): CCOC(=O)[C@H](CCc1ccccc1)N[C@@H](C)C(=O)N1CCC[C@H]1C(=O)O

- Activity [2]: transporter substrate
- Activity [3]: transporter substrate
Structure (SMILES): CC1=C(C(=O)O)N2C(=O)[C@@H](NC(=O)[C@H](N)c3ccc(O)cc3)[C@H]2SC1 [CEFADROXIL]

- Activity [2]: transporter substrate
- Activity [3]: transporter substrate
Structure (SMILES): CC1=C(C(=O)O)N2C(=O)[C@@H](NC(=O)[C@H](N)c3ccccc3)[C@H]2SC1 [CEPHALEXIN ANHYDROUS]

- Activity [6]: transporter substrate
Structure (SMILES): C[C@H]1COc2c(N3CCN(C)CC3)c(F)cc3c(=O)c(C(=O)O)cn1c23.C[C@H]1COc2c(N3CCN(C)CC3)c(F)cc3c(=O)c(C(=O)O)cn1c23.O [LEVOFLOXACIN]

- Activity [5]: transporter substrate
Structure (SMILES): CCOc1cc(CC(=O)N[C@@H](CC(C)C)c2ccccc2N2CCCCC2)ccc1C(=O)O [REPAGLINIDE]

- Activity [1]: transporter substrate
Structure (SMILES): CCCc1nc2c(C)cc(-c3nc4ccccc4n3C)cc2n1Cc1ccc(-c2ccccc2C(=O)O[C@@H]2O[C@H](C(=O)O)[C@@H](O)[C@H](O)[C@H]2O)cc1 [TELMISARTAN GLUCURONIDE]

- Activity [2]: transporter substrate
- Activity [3]: transporter substrate
Structure (SMILES): CC(C)C[C@H](NC(=O)[C@@H](O)[C@H](N)Cc1ccccc1)C(=O)O [UBENIMEX]
